Experiments:
adenosine A2B receptor [1] = target: T1, adenosine A2B receptor (Homo sapiens, UniProt P29275); experiment: HTRF […]', […]'-cAMP assay in HEK293 cells expressing human A2B receptors; format: cell-based
T1 sequence (P29275 1-332): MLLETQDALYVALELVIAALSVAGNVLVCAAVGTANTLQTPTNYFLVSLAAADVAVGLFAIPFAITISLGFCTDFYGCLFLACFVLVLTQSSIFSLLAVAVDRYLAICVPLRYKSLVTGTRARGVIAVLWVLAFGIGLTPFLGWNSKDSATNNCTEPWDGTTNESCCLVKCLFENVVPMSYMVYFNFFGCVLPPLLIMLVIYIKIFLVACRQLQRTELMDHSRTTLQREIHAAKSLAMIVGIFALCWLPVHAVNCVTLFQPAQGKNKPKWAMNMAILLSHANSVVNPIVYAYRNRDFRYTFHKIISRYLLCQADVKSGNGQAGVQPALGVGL

adenosine A2B receptor [2] = target: T1, adenosine A2B receptor; experiment: as above; format: cell-based; remark: listed apart in the source

HTRF 3',5'-cAMP assay in HEK293 cells expressing human A2B receptors; antagonism (adenosine A2B receptor [1]) [µmol/L]	HTRF 3',5'-cAMP assay in HEK293 cells expressing human A2B receptors; response a (adenosine A2B receptor [2]) [µmol/L]	Compound
1		CCCn1c(=O)c2[nH]c(-c3ccc(OCC(=O)Nc4ccc(C#N)cc4)cc3)nc2n(CCC)c1=O [MRS 1754]
	3 to 10	O=c1[nH]cnc2c1ncn2[C@@H]1O[C@H](CO)[C@@H](O)[C@H]1O [inosine]
